# Results: publication PMC5962959 (ChemMedChem, 2017)
# pIC50: −log10 of the molar value.
# Assays:
# full-length human TSSK2 = target: T1, full-length human TSSK2 (Homo sapiens, UniProt Q96PF2); test: Mobility shift assay: TSSK2 phosphorylation of 5-FAM-GS peptide; type: biochemical; conditions: for TSSK2 inhibitor confirmed in concentration-response experiments after HTS: HTS at 10 μM, cherry-picked compounds from DMSO stocks; for fold reduction in TSSK2 activity: relative to compound 18
# T1 sequence (Q96PF2 1-358): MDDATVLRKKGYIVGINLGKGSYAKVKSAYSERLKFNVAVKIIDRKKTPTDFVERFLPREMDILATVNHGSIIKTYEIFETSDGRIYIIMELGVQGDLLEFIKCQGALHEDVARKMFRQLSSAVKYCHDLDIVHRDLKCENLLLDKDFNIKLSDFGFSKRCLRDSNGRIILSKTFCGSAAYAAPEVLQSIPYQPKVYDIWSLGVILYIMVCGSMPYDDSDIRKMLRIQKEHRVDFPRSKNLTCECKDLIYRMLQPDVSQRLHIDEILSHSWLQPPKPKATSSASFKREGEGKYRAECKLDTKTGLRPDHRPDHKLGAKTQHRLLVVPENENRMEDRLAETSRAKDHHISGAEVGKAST
# [1] = system: insulin-like growth factor 1 receptor (IGF-1R); test: Reported IGF-1R inhibition; type: biochemical
# GRK1 = test: Reported GRK inhibition; type: biochemical; conditions: GRK data ref 10d
# [2] = system: kinases (PKIS profiling panel); conditions: at 100 nM; ref profiling data provided by GSK supporting the PKIS collections; cited from earlier work
# [3] = system: insulin-like growth factor 1 receptor (IGF-1R); conditions: cited from earlier work
# [4] = target: focal adhesion kinase (FAK); conditions: patent literature, Supplementary Table 2; ref 13p; cited from earlier work
# 369 wild-type kinases = test: Kinome profiling at Reaction Biology Corp.; type: biochemical; conditions: 100 nM
# TSSK1 = target: T2, TSSK1 (Homo sapiens, UniProt Q9BXA7); test: TSSK family member inhibition, TSSK1; type: biochemical
# T2 sequence (Q9BXA7 1-367): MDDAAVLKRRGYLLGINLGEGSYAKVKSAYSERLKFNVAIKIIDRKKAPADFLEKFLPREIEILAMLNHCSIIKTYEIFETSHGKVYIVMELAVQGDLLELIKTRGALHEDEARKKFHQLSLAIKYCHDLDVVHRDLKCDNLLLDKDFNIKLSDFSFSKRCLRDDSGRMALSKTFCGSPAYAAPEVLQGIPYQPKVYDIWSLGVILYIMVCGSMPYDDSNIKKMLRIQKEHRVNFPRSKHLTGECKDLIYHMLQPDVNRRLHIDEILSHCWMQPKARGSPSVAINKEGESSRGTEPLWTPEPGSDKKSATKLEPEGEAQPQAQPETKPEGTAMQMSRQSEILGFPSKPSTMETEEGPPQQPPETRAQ
# TSSK3 = test: TSSK family member inhibition, TSSK3; type: biochemical
# TSSK6 = TSSK6 (Homo sapiens, UniProt Q9BXA6); test: TSSK family member inhibition, TSSK6; type: biochemical
# [5] = system: anaplastic lymphoma kinase (ALK); conditions: cited from earlier work
# FLT3 = conditions: ref 13b; cited from earlier work
# LRRK2 = conditions: ref 13c; cited from earlier work
# Tie2 = conditions: ref 13b; cited from earlier work
# insulin receptor = conditions: read-out: insulin receptor IC50; Supplementary Table 2; ref 13a; cited from earlier work
# LTK = conditions: read-out: LTK IC50; Supplementary Table 2; ref 13a; cited from earlier work
# CLK2 = conditions: read-out: CLK2 IC50; Supplementary Table 2; ref 13a; cited from earlier work
# Chain of TSSK6 (Q9BXA6 whole entry): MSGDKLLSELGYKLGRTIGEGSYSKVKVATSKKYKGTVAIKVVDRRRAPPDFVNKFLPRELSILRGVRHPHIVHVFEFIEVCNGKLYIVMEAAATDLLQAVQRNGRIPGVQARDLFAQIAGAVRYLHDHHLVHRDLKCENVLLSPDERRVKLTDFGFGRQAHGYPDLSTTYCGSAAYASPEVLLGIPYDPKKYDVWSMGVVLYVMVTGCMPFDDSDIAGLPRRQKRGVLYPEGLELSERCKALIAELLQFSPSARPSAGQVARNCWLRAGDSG
smiles,measurement,setting,value
O=c1[nH]c2ccc(Cl)cc2c(N[C@@H]2CN3CCC2CC3)c1-c1nc2ccccc2[nH]1 [CHIR-124],TSSK2 inhibitor confirmed in concentration-response experiments after HTS,full-length human TSSK2,active
COc1cc2c(cc1Nc1nc(Nc3ccsc3C(N)=O)c3cc[nH]c3n1)N(C(=O)CN(C)C)CCC2(C)C [Compound 10],fold more potent inhibitors of IGF-1 than of TSSK2,[1],≥ 100 fold
same,fold selective for TSSK2 over GRK1,GRK1,> 5 fold
same,number of kinases inhibited by > 50%,[2],15 – 20
CNS(=O)(=O)c1ccccc1Nc1nc(Nc2ccc(N3CCN(C)CC3)cc2OC)ncc1Br [Compound 17],potency for inhibiting IGF-1R,"[3]; compared with FAK, ref 13p",substantially less potent
same,FAK IC50,[4],low nanomolar
CNS(=O)(=O)c1ccccc1Nc1nc(Nc2ccc(N3CCN(C)CC3)cc2OC)ncc1Cl [Compound 18],FAK IC50,[4],low nanomolar
"CNS(=O)(=O)c1ccccc1Nc1nc(Nc2ccc(C3CCN(C)CC3)cc2OC)ncc1Cl [Compound 19, 2-[[5-chloro-2-[2-methoxy-4-(1-methylpiperidin-4-yl)anilino]pyrimidin-4-yl]amino]-N-methylbenzenesulfonamide]",fold reduction in TSSK2 activity,full-length human TSSK2,< 2 fold
same,number of 369 kinases inhibited to a greater extent than TSSK2,369 wild-type kinases,62
same,fold more potent at inhibiting TSSK1 than TSSK2,TSSK1,> 40 fold
same,rank order potency at TSSK isoforms,TSSK1,TSSK1 > TSSK2 > TSSK3 > TSSK6
same,fold more potent at TSSK1 than TSSK3,TSSK3,800 fold
same,activity at TSSK6,TSSK6,almost inactive
same,fold selective for TSSK1 over TSSK6,TSSK6,"~100,000 fold"
COc1cc(N2CCC(N3CCN(C)CC3)CC2)ccc1Nc1ncc(Cl)c(Nc2ccccc2S(=O)(=O)C(C)C)n1 [Compound 22],fold reduction in TSSK2 activity,full-length human TSSK2,~ 2 fold
same,activity at ALK,[5],low nanomolar
same,activity at FLT3,FLT3,low nanomolar
same,activity at LRRK2,LRRK2,low nanomolar
same,activity at Tie2,Tie2,low nanomolar
COc1cc(N2CCC(O)CC2)ccc1Nc1nc(Nc2ccccc2S(=O)(=O)C(C)C)c2[nH]cnc2n1 [Compound 35],pIC50,"[3]; read-out: IGF-1R IC50, Supplementary Table 2, ref 13a",7.40 to 7.70
same,pIC50,insulin receptor,7.40 to 7.70
same,pIC50,LTK,7.40 to 7.70
same,pIC50,CLK2,7.40 to 7.70
CCn1c(-c2nonc2N)nc2c(C#CC(C)(C)O)nc(O[C@@H](CN)c3ccccc3)cc21 [GSK1007102B],TSSK2 inhibitor confirmed in concentration-response experiments after HTS,full-length human TSSK2,active
CC(=O)NCC(=O)N1[C@@H]2CC[C@H]1c1ccc(Nc3ncc(C(F)(F)F)c(NC4CCC4)n3)cc12 [PF-03814735],TSSK2 inhibitor confirmed in concentration-response experiments after HTS,full-length human TSSK2,active
COc1ccc([C@@H]2CC(=O)c3c(O)cc(O[C@@H]4O[C@H](CO[C@@H]5O[C@@H](C)[C@H](O)[C@@H](O)[C@H]5O)[C@@H](O)[C@H](O)[C@H]4O)cc3O2)cc1O [hesperidin],TSSK2 inhibitor confirmed in concentration-response experiments after HTS,full-length human TSSK2,active
